# Experimental data published in patent publication EP0442958B1, “PHARMACEUTICAL COMPOSITION FOR OPHTHALMIC USE COMPRISING A WATER SOLUBLE ACID ADDITION SALT OF IBOPAMINE” (ZAMBON GROUP S.p.A., priority 1988, dated 1990).
# Counter-ions that a name gives are not always drawn.
# Legend:
# [1] = Stability of aqueous ibopamine solutions (ibopamine titer); type: physicochemical; conditions: aqueous solutions buffered at pH 4.5, room temperature
# [2] = well known, WO 86/03970; cited from earlier work
Structure (SMILES),period for which ibopamine titer remains substantially unchanged [1],mydriatic activity [2]
"CNCCc1ccc(OC(=O)C(C)C)c(OC(=O)C(C)C)c1 [ibopamine hydrochloride, Ibopamine hydrochloride]",20 to 25 days,
"CNCCc1ccc(OC(=O)C(C)C)c(OC(=O)C(C)C)c1 [ibopamine, epinine 3,4-0-diisobutyrate]",,endowed with mydriatic activity
